Results on 13 compounds are retold here after ChEMBL document CHEMBL4270514, “Design, synthesis and biological evaluation of novel xanthine oxidase inhibitors bearing a 2-arylbenzo[b]furan scaffold” (Eur J Med Chem, 2018).

The source made the active and inactive calls. The calls are words filed in the database; no cut-off is given here.

The subject of the first data set is RAW264.7. Put plainly: Inhibition of LPS-induced ROS generation in mouse RAW264.7 cells at 1 to 10 uM after 24 hrs by H2DCFH staining-based fluorescence assay.
Details: not given
It is filed as functional, cell-based.
Take `O=C(CCc1ccc(O)c2oc(-c3ccc(O)c(O)c3)cc12)N1CCOCC1`: the inhibition entry was “inactive”.

With `O=C(CCc1ccc(O)c2oc(-c3ccc(O)c(O)c3)cc12)Nc1ccc(O)cc1`, the inhibition entry is “inactive”.

For the compound `C=CCNC(=O)/C=C/c1ccc(O)c2oc(-c3ccc(O)c(O)c3)cc12`, the inhibition result was “inactive”.

For the compound `O=C(O)CCc1ccc(O)c2oc(-c3ccc(O)c(O)c3)cc12`, the inhibition entry was “inactive”.

With `CNC(=O)CCc1ccc(O)c2oc(-c3ccc(O)c(O)c3)cc12`, the inhibition result is “inactive”.

Regarding `O=C(/C=C/c1ccc(O)c2oc(-c3ccc(O)c(O)c3)cc12)N1CCOCC1`, the inhibition entry is “inactive”.

In the case of `O=C(/C=C/c1ccc(O)c2oc(-c3ccc(O)c(O)c3)cc12)Nc1ccccc1`, the inhibition result is “inactive”.

Consider `CC(C)OC(=O)/C=C/c1ccc(O)c2oc(-c3ccc(O)c(O)c3)cc12`, for which the inhibition result is “inactive”.

As for `O=C(/C=C/c1ccc(O)c2oc(-c3ccc(O)c(O)c3)cc12)Nc1ccc(O)cc1`, the inhibition result is “inactive”.

As to `CCNC(=O)/C=C/c1ccc(O)c2oc(-c3ccc(O)c(O)c3)cc12`, the inhibition entry is “inactive”.

Another data set relates to Mus musculus. Put plainly: Hypouricemic effect in ICR mouse model of potassium oxonate-induced acute hyperuricemia assessed as reduction in serum uric acid levels at 10 mg/kg, iv measured at 1 hr post dose. It is filed as functional, organism-based.
Details: not given
Take `Oc1ncnc2[nH]ncc12`: the outcome was Active.

In another data set the test system is Mus musculus. Put plainly: Hypouricemic effect in iv dosed ICR mouse model of potassium oxonate-induced acute hyperuricemia assessed as reduction in serum uric acids level measured after 1 hr post dose. It is filed as functional, organism-based.
Details: not given
As for `O=C(/C=C/c1ccc(O)c2oc(-c3ccc(O)c(O)c3)cc12)O[C@H](Cc1ccc(O)c(O)c1)C(=O)O`, the Activity result is “Dose-dependent effect”.

`CNC(=O)/C=C/c1ccc(O)c2oc(-c3ccc(O)c(O)c3)cc12`: the Activity result was “Dose-dependent effect”.

The target in a further data set is T1, Xanthine dehydrogenase/oxidase (Bos taurus, UniProt P80457). Briefly: Uncompetitive inhibition of bovine xanthine oxidase using xanthine as substrate preincubated for 3 mins followed by substrate addition by Lineweaver-Burk plot analysis.
T1 sequence (P80457 whole entry): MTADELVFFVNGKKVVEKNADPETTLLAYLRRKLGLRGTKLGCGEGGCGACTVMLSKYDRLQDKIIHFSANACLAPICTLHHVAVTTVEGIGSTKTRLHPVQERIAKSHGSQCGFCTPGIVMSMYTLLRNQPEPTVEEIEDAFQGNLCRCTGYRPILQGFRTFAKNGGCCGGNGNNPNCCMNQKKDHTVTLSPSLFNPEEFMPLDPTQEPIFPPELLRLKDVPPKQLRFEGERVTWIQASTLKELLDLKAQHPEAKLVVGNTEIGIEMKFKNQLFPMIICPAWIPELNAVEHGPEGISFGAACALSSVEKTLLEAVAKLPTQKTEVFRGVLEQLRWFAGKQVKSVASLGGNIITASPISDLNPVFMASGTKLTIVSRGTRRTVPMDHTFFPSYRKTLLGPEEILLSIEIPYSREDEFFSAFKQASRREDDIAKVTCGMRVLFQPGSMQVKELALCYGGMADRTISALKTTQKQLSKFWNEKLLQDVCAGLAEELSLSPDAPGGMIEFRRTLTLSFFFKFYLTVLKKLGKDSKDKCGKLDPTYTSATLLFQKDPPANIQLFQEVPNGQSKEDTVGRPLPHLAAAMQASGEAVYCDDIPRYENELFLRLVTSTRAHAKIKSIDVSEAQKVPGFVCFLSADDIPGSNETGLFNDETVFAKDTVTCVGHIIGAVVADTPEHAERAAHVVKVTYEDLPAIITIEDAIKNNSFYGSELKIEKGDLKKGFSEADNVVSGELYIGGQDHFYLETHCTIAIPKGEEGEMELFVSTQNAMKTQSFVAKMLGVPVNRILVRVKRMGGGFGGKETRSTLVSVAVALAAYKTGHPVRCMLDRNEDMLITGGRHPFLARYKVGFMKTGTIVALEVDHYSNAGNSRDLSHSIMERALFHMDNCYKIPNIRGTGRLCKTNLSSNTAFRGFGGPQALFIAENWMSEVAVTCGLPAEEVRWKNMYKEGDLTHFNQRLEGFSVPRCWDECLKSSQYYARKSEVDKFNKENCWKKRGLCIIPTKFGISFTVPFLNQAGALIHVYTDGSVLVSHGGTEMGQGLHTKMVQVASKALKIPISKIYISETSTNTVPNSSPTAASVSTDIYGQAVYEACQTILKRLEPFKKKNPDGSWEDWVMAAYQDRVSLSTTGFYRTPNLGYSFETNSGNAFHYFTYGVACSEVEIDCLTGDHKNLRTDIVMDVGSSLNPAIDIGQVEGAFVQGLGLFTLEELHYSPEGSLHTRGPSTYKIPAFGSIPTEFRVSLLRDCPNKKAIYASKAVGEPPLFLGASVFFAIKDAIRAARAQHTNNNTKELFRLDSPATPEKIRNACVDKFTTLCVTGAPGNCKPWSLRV
Details: not given
The Ki is a dissociation constant, usually derived from enzyme kinetics or from competition with a known ligand. High values mean lower affinity, low ones higher affinity. Compound `CNC(=O)/C=C/c1ccc(O)c2oc(-c3ccc(O)c(O)c3)cc12` showed a Ki of 13.1 µM.

Tested on in the next data set: not listed separately
Put plainly: Antioxidant activity assessed as DPPH radical scavenging activity after 30 mins by spectrophotometric analysis.
Details: not given
It is filed as functional. (The DPPH test is a chemical assay of radical scavenging.)
What is called IC50 is the concentration that gives 50% inhibition. Turning to `O=C(CCc1ccc(O)c2oc(-c3ccc(O)c(O)c3)cc12)N1CCOCC1`, the half-maximal inhibitory concentration (IC50) was 6.62 to 21.1 µM.

Consider `O=C(CCc1ccc(O)c2oc(-c3ccc(O)c(O)c3)cc12)Nc1ccc(O)cc1`, for which the IC50 was 6.62 to 21.1 µM.

As to `C=CCNC(=O)/C=C/c1ccc(O)c2oc(-c3ccc(O)c(O)c3)cc12`, the IC50 is 6.62 to 21.1 µM.

Regarding `O=C(O)CCc1ccc(O)c2oc(-c3ccc(O)c(O)c3)cc12`, the IC50 lay in the range of 6.62 to 21.1 µM.

`CNC(=O)CCc1ccc(O)c2oc(-c3ccc(O)c(O)c3)cc12`: the half-maximal inhibitory concentration (IC50) fell in the range of 6.62 to 21.1 µM.

Take `O=C(/C=C/c1ccc(O)c2oc(-c3ccc(O)c(O)c3)cc12)N1CCOCC1`: the IC50 lay within 6.62 to 21.1 µM.

With `CNC(=O)/C=C/c1ccc(O)c2oc(-c3ccc(O)c(O)c3)cc12`, the half-maximal inhibitory concentration (IC50) was 6.62 to 21.1 µM.

In the case of `O=C(/C=C/c1ccc(O)c2oc(-c3ccc(O)c(O)c3)cc12)Nc1ccccc1`, the half-maximal inhibitory concentration (IC50) fell in the range of 6.62 to 21.1 µM.

As to `CC(C)OC(=O)/C=C/c1ccc(O)c2oc(-c3ccc(O)c(O)c3)cc12`, the half-maximal inhibitory concentration (IC50) lay within 6.62 to 21.1 µM.

As to `O=C(/C=C/c1ccc(O)c2oc(-c3ccc(O)c(O)c3)cc12)Nc1ccc(O)cc1`, the IC50 fell in the range of 6.62 to 21.1 µM.

For `CCNC(=O)/C=C/c1ccc(O)c2oc(-c3ccc(O)c(O)c3)cc12`, the concentration for half-maximal inhibition (IC50) is 6.62 to 21.1 µM.

A further data set concerns the target T1, Xanthine dehydrogenase/oxidase. Briefly: Inhibition of bovine xanthine oxidase using xanthine as substrate preincubated for 3 mins followed by substrate addition and measured for every 15 secs for 7 mins by spectrophotometric analysis.
Details: not given
In the case of `O=C(CCc1ccc(O)c2oc(-c3ccc(O)c(O)c3)cc12)N1CCOCC1`, the IC50 is > 100 µM.

Compound `O=C(CCc1ccc(O)c2oc(-c3ccc(O)c(O)c3)cc12)Nc1ccc(O)cc1` displayed an IC50 of 38.6 µM.

`C=CCNC(=O)/C=C/c1ccc(O)c2oc(-c3ccc(O)c(O)c3)cc12`: it took 18.2 µM to reach half-maximal inhibition (IC50).

Turning to `O=C(O)CCc1ccc(O)c2oc(-c3ccc(O)c(O)c3)cc12`, the half-maximal inhibitory concentration (IC50) was 9.76 µM.

For the compound `CNC(=O)CCc1ccc(O)c2oc(-c3ccc(O)c(O)c3)cc12`, the IC50 came out at 11.5 µM.

In the case of `O=C(/C=C/c1ccc(O)c2oc(-c3ccc(O)c(O)c3)cc12)N1CCOCC1`, the IC50 is > 100 µM.

As for `CNC(=O)/C=C/c1ccc(O)c2oc(-c3ccc(O)c(O)c3)cc12`, the IC50 was 4.45 µM.

For `O=C(/C=C/c1ccc(O)c2oc(-c3ccc(O)c(O)c3)cc12)Nc1ccccc1`, the IC50 is 17.8 µM.

For the compound `CC(C)OC(=O)/C=C/c1ccc(O)c2oc(-c3ccc(O)c(O)c3)cc12`, the half-maximal inhibitory concentration (IC50) was 24.2 µM.

Compound `O=C(/C=C/c1ccc(O)c2oc(-c3ccc(O)c(O)c3)cc12)Nc1ccc(O)cc1` showed an IC50 of 11 µM.

In turn, `CCNC(=O)/C=C/c1ccc(O)c2oc(-c3ccc(O)c(O)c3)cc12` came in with an IC50 of 13.5 µM.

Tested on in the next data set: not listed separately
Put plainly: Cytotoxicity against mouse RAW264.7 cells assessed as effect on cell viability at 1 to 10 uM after 24 hrs by MTT assay relative to control. The following applies: read-out: Activity. The class given is cell-based. (Formazan colour is commonly taken as a measure of viable cells.)
For the compound `O=C(CCc1ccc(O)c2oc(-c3ccc(O)c(O)c3)cc12)N1CCOCC1`, the viability at 24 h, up to 10 µM is > 85%.

For the compound `O=C(CCc1ccc(O)c2oc(-c3ccc(O)c(O)c3)cc12)Nc1ccc(O)cc1`, the viability at 24 h, up to 10 µM is > 85%.

For the compound `O=C(/C=C/c1ccc(O)c2oc(-c3ccc(O)c(O)c3)cc12)O[C@H](Cc1ccc(O)c(O)c1)C(=O)O`, the viability at 24 h, up to 10 µM was > 85%.

Turning to `C=CCNC(=O)/C=C/c1ccc(O)c2oc(-c3ccc(O)c(O)c3)cc12`, the viability at 24 h, up to 10 µM was > 85%.

For `O=C(O)CCc1ccc(O)c2oc(-c3ccc(O)c(O)c3)cc12`, the viability at 24 h, up to 10 µM was > 85%.

In the case of `CNC(=O)CCc1ccc(O)c2oc(-c3ccc(O)c(O)c3)cc12`, the viability at 24 h, up to 10 µM is > 85%.

`O=C(/C=C/c1ccc(O)c2oc(-c3ccc(O)c(O)c3)cc12)N1CCOCC1`: the viability at 24 h, up to 10 µM is > 85%.

As to `CNC(=O)/C=C/c1ccc(O)c2oc(-c3ccc(O)c(O)c3)cc12`, the viability at 24 h, up to 10 µM was > 85%.

For the compound `O=C(/C=C/c1ccc(O)c2oc(-c3ccc(O)c(O)c3)cc12)Nc1ccccc1`, the viability at 24 h, up to 10 µM is > 85%.

Turning to `CC(C)OC(=O)/C=C/c1ccc(O)c2oc(-c3ccc(O)c(O)c3)cc12`, the viability at 24 h, up to 10 µM was > 85%.

On to `O=C(/C=C/c1ccc(O)c2oc(-c3ccc(O)c(O)c3)cc12)Nc1ccc(O)cc1`, for which the viability at 24 h, 10 µM was > 85%.

Turning to `CCNC(=O)/C=C/c1ccc(O)c2oc(-c3ccc(O)c(O)c3)cc12`, the viability at 24 h, 10 µM was > 85%.

A further data set has as its system RAW264.7. Briefly: Inhibition of LPS-induced ROS generation in mouse RAW264.7 cells after 24 hrs by H2DCFH staining-based fluorescence assay. It is filed as functional, cell-based.
Details: not given
With `CNC(=O)/C=C/c1ccc(O)c2oc(-c3ccc(O)c(O)c3)cc12`, the inhibition result was “Dose-dependent effect”.

Another data set addresses T1, Xanthine dehydrogenase/oxidase. Put plainly: Competitive inhibition of bovine xanthine oxidase using xanthine as substrate preincubated for 3 mins followed by substrate addition by Lineweaver-Burk plot analysis.
Details: not given
On to `CNC(=O)/C=C/c1ccc(O)c2oc(-c3ccc(O)c(O)c3)cc12`, for which the Ki is 3.52 µM.
